Patent US20150073008A1, “Topical Application of Vinca Alkaloids for the Treatment of Actinic Keratosis” (Merz Pharma GmbH & Co. KGaA, priority 2013, published 2015)
Counter-ions that a name gives are not always drawn. Like-named read-outs stand apart in the source and are kept apart here.

Columns and labels:
SCC-111 cells [1] = conditions: for DCF-value: after repeating the experiments several times
[2] = test system: proliferating and non-proliferating cells; assay: Comparative test of cell density as a function of time (normal and high cell density); assay type: cell-based
SCC-111 cells [3] = assay: cells; conditions: Homo sapiens, read-out: in vitro IC50-value (in SCC-111 cells)
Stability at pH 5.5 = assay type: physicochemical
Description: Some topical formulations may have a reduced stability at a temperature of 37° C. and a pH-value of 7 or more, e.g. a pH-value of 7.4.

[4] = Dermal absorption study with human skin (Franz diffusion cells, 3H-API); conditions: different concentrations and formulations (cream, liposomes, hydro-tops)
[5] = test system: human skin (Leiden epidermal skin); assay: Methylthiazol Tetrazolium-Assay (MTT) skin irritation, in vitro human skin model; assay type: cell-based; conditions: doses of 100-times the in vitro IC50-values; irritant = metabolic activity of skin model reduced to ≦50%
Description: This leads to the option to apply the vinca-compositions not only to single affected skin lesions (“spots”) but also to larger areas of the skin, e.g. for “field treatment”, and often even >5% (or >10%) of the skin surface (of the individual).

Solubility = conditions: pH 6.5
[6] = IC50 in 0% FBS divided by IC50 in 20% FBS, SCC-111 cells
[7] = read-out: in vitro IC50-value (in SCC-111 cells), SCC-111 cells, serum condition not stated

Molecule	IC50 (SCC-111 cells [3])	stability (compound remaining) (Stability at pH 5.5; buffer, 168 h, pH 5.5)	dermal absorption (in words) [4]	DCF-value (SCC-111 cells [1]; [6])	skin irritation rating in MTT assay [5]	other results
COc1cccc2c1C(=O)c1c(O)c3c(c(O)c1C2=O)C[C@@](O)(C(=O)CO)C[C@@H]3O[C@H]1C[C@H](N)[C@@H](O)[C@H](C)O1 [Epirubicin, Epirubicin HCL]	–	–	–	6.05	–	–
COc1cc([C@@H]2c3cc4c(cc3[C@@H](O[C@@H]3O[C@@H]5CO[C@@H](c6cccs6)O[C@H]5[C@H](O)[C@H]3O)[C@H]3COC(=O)[C@H]23)OCO4)cc(OC)c1O [Teniposide]	–	–	–	5.76	–	–
Vinblastine sulfate hydrate	–	–	–	19.87	not rated as irritant	stability (compound remaining) (Stability at pH 5.5; pH 5.5, test for 7 days, 5° C.): 97%; solubility (Solubility): 0.25%; IC50 (SCC-111 cells [1]; [7]): 870 pM

More lines, main results first:

IC50 (SCC-111 cells [3])	stability (compound remaining) (Stability at pH 5.5; buffer, 168 h, pH 5.5)	dermal absorption (in words) [4]	Molecule	DCF-value (SCC-111 cells [1]; [6])	skin irritation rating in MTT assay [5]	other results
960000 pM	–	–	O=c1[nH]cc(F)c(=O)[nH]1 [Example 5-FU, 5-Fluorouracil]	0.73	–	effect on number of cells at normal (proliferating) and high (non-proliferating) cell density [2]: cells were affected, independent of their proliferation-status
920 pM	99.6%	good dermal absorption	CC[C@]1(O)C[C@H]2CN(CCc3c([nH]c4ccccc34)[C@@](C(=O)OC)(c3cc4c(cc3OC)N(C=O)[C@H]3[C@@](O)(C(=O)OC)[C@H](OC(C)=O)[C@]5(CC)C=CCN6CC[C@]43[C@@H]65)C2)C1 [Vincristine, Vincristine sulfate]	5.86	not rated as irritant	solubility in water (pH 5.5): 0.57 % by weight
–	98.8%	good dermal absorption	CC[C@]1(O)C[C@@H]2CN(CCc3c([nH]c4ccccc34)[C@@](C(=O)OC)(c3cc4c(cc3OC)N(C)[C@H]3[C@@](O)(C(N)=O)[C@H](O)[C@]5(CC)C=CCN6CC[C@]43[C@@H]65)C2)C1 [Vindesine, Vindesine sulfate hydrate]	11.43	not rated as irritant	DCF-value (differential cytotoxicity factor) from FIGS. 1 and 2 (SCC-111 cells [1]; IC50 in 0% FBS divided by IC50 in 20% FBS, single example experiment): > 10; IC50 (SCC-111 cells [1]; read-out: IC50-value, 0% FBS medium cultivated cells (FIG. 2), SCC-111, 0% FBS (low proliferation), DNA-content, 72 hours): 3500 pM; IC50 (SCC-111 cells [1]; read-out: IC50-value, 20% FBS medium cultivated cells (FIG. 1), SCC-111, 20% FBS (high proliferation), DNA-content, 72 hours): 340 pM; IC50 (SCC-111 cells [1]; [7]): 570 pM
1340 pM	99.5%	good dermal absorption	CCC1=C[C@@H]2CN(C1)Cc1c([nH]c3ccccc13)[C@@](C(=O)OC)(c1cc3c(cc1OC)N(C)[C@H]1[C@@](O)(C(=O)OC)[C@H](OC(C)=O)[C@]4(CC)C=CCN5CC[C@]31[C@@H]54)C2 [Vinorelbine]	6.42	not rated as irritant	solubility (pH 6.5): 0.7%
